The source of these data is patent US7547710B2, “Fused heterocyclic compounds as peptidase inhibitors” (Takeda Pharmaceutical Company Limited, priority 2002, dated 2009).

Structures are written as SMILES.

T1 sequence (P27487 whole entry): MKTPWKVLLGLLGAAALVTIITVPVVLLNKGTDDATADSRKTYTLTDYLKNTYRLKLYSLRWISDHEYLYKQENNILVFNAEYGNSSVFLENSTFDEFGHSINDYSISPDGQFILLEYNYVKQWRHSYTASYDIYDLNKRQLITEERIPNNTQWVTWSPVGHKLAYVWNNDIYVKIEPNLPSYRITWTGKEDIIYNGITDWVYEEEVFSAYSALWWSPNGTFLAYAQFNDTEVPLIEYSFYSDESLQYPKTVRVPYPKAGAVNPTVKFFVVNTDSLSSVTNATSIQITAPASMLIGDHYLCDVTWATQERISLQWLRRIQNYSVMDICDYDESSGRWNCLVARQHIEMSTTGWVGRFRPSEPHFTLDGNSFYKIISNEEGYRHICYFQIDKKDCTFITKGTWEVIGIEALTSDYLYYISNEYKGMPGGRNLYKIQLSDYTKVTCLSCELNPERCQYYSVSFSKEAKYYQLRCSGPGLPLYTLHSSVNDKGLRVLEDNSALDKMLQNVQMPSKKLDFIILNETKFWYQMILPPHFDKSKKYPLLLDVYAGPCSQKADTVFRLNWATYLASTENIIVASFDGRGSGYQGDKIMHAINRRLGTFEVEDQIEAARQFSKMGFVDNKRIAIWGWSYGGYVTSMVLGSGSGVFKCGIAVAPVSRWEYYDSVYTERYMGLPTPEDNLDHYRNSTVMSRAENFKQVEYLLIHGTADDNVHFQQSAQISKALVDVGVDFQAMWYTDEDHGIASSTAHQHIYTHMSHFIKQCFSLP

The first series concerns the target T1, Caco-2-derived dipeptidyl peptidase IV (Homo sapiens, UniProt P27487).
T1 construct: A dipeptidyl peptidase IV crude enzyme solution was prepared from cultured Caco-2 (ATCC HTB-37) cells; endogenous in cells; host or cells: Caco-2 (ATCC HTB-37); Triton X-100 extract, Sephadex G-200 fractions
Briefly: Determination of Caco-2-derived dipeptidyl peptidase IV inhibitory activity. In kind it is biochemical. The note with it: Caco-2 crude enzyme solution, substrate Gly-Pro-p-NA, 37° C., absorbance 405 nm after 0 hr. and 3 hrs. Here is the method: The enzyme activity of dipeptidyl peptidase IV present in human colonic adenocarcinoma-derived cell line Caco-2 cell membrane has been already reported by Yong S. Chung et al. (Cancer Research, vol. 45, pp. 2976-2982, 1985).
A dipeptidyl peptidase IV crude enzyme solution was prepared from cultured Caco-2 (ATCC HTB-37) cells. The Caco-2 cells were cultured in D-MEM medium (manufactured by Nissui Pharmaceutical Co., Ltd.) containing 10% FBS (fetal bovine serum (manufactured by GIBCO)). […]
An N,N-dimethylformamide solution (5 μl) containing the test compound was added to a mixture of water (25 μl), 1M Tris-hydrochloride buffer (10 μl, pH 7.5) and 1 mM aqueous glycylprolyl-p-nitroanilide (Gly-Pro-p-NA; manufactured by Backem AG) solution (50 μl) to prepare a mixed solution. […] The absorbance after 0 hr. and 3 hrs. was measured using a microplate reader (Multiskan Bichromatic; manufactured by Labsystems) at a wavelength of 405 nm and an increase (ΔODs) was determined. At the same time, an increase (ΔODc) in absorbance of the reaction mixture without the test compound, and an increase (ΔODb) in absorbance of the reaction mixture without the test compound and the enzyme were determined and percent inhibition of dipeptidyl peptidase IV enzyme activity was calculated from the following formula: {1−[(ΔODs−ΔODb)/(ΔODc−ΔODb)]}×100 […]
By IC50 is commonly meant the point on the concentration scale where inhibition reaches its midpoint. A lower IC50 goes with greater potency in that assay. The compound `CC(C)Cc1nc2ccc(Cl)cc2c(-c2ccccc2)c1CN` [Example 1, (6-chloro-2-isobutyl-4-phenylquinolin-3-yl)methylamine] showed an IC50 of 710 nM.

The target in another series is T2, dipeptidyl peptidase IV in rat plasma (Rattus norvegicus, UniProt P14740).
T2 construct: from tissue; host or cells: SD rat blood plasma
T2 sequence (P14740 37-767 limits assumed): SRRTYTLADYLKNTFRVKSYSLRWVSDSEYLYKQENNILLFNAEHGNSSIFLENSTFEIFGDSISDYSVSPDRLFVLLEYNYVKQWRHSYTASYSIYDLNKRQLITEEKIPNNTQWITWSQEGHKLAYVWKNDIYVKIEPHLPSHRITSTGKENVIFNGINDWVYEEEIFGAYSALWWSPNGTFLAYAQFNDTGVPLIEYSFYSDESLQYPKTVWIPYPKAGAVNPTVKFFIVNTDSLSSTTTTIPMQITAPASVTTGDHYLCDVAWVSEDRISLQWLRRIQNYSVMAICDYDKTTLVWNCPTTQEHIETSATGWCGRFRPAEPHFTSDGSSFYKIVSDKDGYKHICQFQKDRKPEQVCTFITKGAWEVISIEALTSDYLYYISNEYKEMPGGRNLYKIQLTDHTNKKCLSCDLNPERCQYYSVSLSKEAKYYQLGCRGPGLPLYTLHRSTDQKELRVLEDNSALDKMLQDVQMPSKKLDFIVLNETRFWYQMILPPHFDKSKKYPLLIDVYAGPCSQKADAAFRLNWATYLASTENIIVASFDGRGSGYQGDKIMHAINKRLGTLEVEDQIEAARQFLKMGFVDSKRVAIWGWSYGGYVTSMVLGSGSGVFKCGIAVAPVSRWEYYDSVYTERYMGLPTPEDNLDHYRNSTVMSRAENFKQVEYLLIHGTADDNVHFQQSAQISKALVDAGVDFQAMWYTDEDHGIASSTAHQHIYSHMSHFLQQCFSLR
Briefly: Determination of dipeptidyl peptidase IV inhibitory activity in rat plasma. It counts as biochemical. The note with it: SD rat plasma, substrate Gly-Pro-p-NA, 30° C., absorbance 405 nm after 0 hr. and 1 hr. On the procedure:
The reaction was carried out according to the method of Raymond et al. (Diabetes, vol. 47, pp. 1253-1258, 1998) using a 96 well flat-bottomed plate at 30° C. An N,N-dimethylformamide solution (1 μl) containing the test compound was added to a mixture of water (69 μl), 1 M Tris-hydrochloride buffer (10 μl, pH 7.5) and 1 mM aqueous Gly-Pro-p-NA solution (100 μl) to prepare a mixed solution. Plasma (20 μl) prepared from blood of SD rat by a conventional method was added to the above-mentioned mixed solution and the enzyme reaction was started at 30° C. The absorbance after 0 hr. and 1 hr. was measured using a microplate reader at a wavelength of 405 nm and an increase (ΔODs) was determined. At the same time, an increase (ΔODc) in absorbance of the reaction mixture without the test compound, and an increase (ΔODb) in absorbance of the reaction mixture without the test compound and the enzyme were determined and percent inhibition of dipeptidyl peptidase IV enzyme activity was calculated from the following formula: {1−[(ΔODs−ΔODb)/(ΔODc−ΔODb)]}×100
The dipeptidyl peptidase IV inhibitory activity of the test compound group is expressed in IC50 value (μM) and shown in Table 2.
For `CC(C)Cc1nc2ccc(Cl)cc2c(-c2ccccc2)c1CN` [Example 1, (6-chloro-2-isobutyl-4-phenylquinolin-3-yl)methylamine], the IC50 was determined as 1600 nM.

Test system in another series: not given
Experiment: not given
Details: not given
For orientation: melting point means the temperature of the solid-liquid transition. Consider `COC(=O)c1ccc2nc(CC(C)C)c(CN)c(-c3ccccc3F)c2c1` [Example 29, Methyl 3-(aminomethyl)-4-(2-fluorophenyl)-2-isobutylquinoline-6-carboxylate], for which the melting point is 138 to 139 °C.

`COc1ccc2nc(CC(C)C)c(CN)c(-c3ccccc3)c2c1` [Example 25, (2-isobutyl-6-methoxy-4-phenylquinolin-3-yl)methylamine] gave a melting point of 73 to 76 °C.

On to `CC(C)Cc1nc2ccc(OCC(N)=O)cc2c(-c2cccs2)c1CN` [Example 33, 2-{[3-(aminomethyl)-2-isobutyl-4-thien-2-ylquinolin-6-yl]oxy}acetamide], for which the melting point lay in the range of 156 to 157 °C.

As to `CC(C)Cc1nc2ccc(OCC(N)=O)cc2c(-c2cccc(F)c2)c1CN` [Example 38, 2-{[3-(aminomethyl)-4-(3-fluorophenyl)-2-isobutylquinolin-6-yl]oxy}acetamide], the melting point was in the range of 106 to 109 °C.

Compound `Cc1ccc(-c2c(CN)c(CC(C)C)nc3ccc(OCc4ccccc4)cc23)cc1` [Example 30, [6-(benzyloxy)-2-isobutyl-4-(4-methylphenyl)quinolin-3-yl]methylamine] yielded a melting point of 119 to 120 °C.

Compound `CC(C)Cc1nc2ccc(C#N)cc2c(-c2ccccc2)c1CN` [Example 3, 3-(aminomethyl)-2-isobutyl-4-phenylquinoline-6-carbonitrile] returned a melting point of 128 to 130 °C.

`NCc1c(CC2CCCC2)nc2ccc(OCC(N)=O)cc2c1-c1ccccc1` [Example 42, 2-{[3-(aminomethyl)-2-(cyclopentylmethyl)-4-phenylquinolin-6-yl]oxy}acetamide]: the melting point was in the range of 159 to 160 °C.

`CC(C)Cc1nc2ccc(Cl)cc2c(-c2ccccc2)c1CN` [Example 1, (6-chloro-2-isobutyl-4-phenylquinolin-3-yl)methylamine] gave a melting point of 114 to 116 °C.

Compound `CC(C)(C)Cc1nc2ccc(OCC(N)=O)cc2c(-c2ccccc2)c1CN` [Example 40, 2-{[3-(aminomethyl)-2-(2,2-dimethylpropyl)-4-phenylquinolin-6-yl]oxy}acetamide] yielded a melting point of 152 to 154 °C.

For `CC(C)Cc1nc2ccc(Br)cc2c(-c2ccccc2)c1CN` [Example 2, (6-bromo-2-isobutyl-4-phenylquinolin-3-yl)methylamine], the melting point lay within 129 to 130 °C.
